Assay results as given in patent US20250054624A1, “METHODS AND SYSTEMS FOR DIGITAL PATHOLOGY ASSESSMENT OF CANCER VIA DEEP LEARNING” (Artera Inc., priority 2023, published 2025).
“Also recorded” adds a separate entry of the source. Where two headings read alike, the source gives them in different places.

What was measured:
[1] = system: nonmetastatic castration-resistant prostate cancer (nmCRPC); assay: SPARTAN phase III randomized placebo-controlled trial; outcomes by treatment group and MMAI risk group; format: in vivo, human; conditions: for PFS2 hazard ratio (HR) for apalutamide compared to placebo: second progression-free survival; for MFS HR, variable Treatment, Cox regression multivariable analysis / OS HR, variable Treatment, Cox regression multivariable analysis / PFS2 HR, variable Treatment, Cox regression multivariable analysis: all patients
Description: The addition of apalutamide (APA) to androgen deprivation therapy (ADT) improved metastasis-free survival (MFS) and second progression-free survival (PFS2) among patients with nonmetastatic castration-resistant prostate cancer (nmCRPC). A digital histopathology-based multimodal AI (MMAI) algorithm as described herein was trained to evaluate whether MMAI could define risk of progression among nmCRPC patients treated with APA or placebo in the SPARTAN trial.
Patients enrolled in the SPARTAN trial with available H&E-stained biopsy slides from their primary diagnosis were included. H&E slides were digitized. Baseline clinical parameters to generate MMAI scores were Gleason score, age, T stage, and PSA. MMAI scores for distant metastasis (DM) were generated, ranging from 0 to 1. Patients were further categorized into MMAI non-high-risk and high-risk groups using a score cutoff. Kaplan Meier estimates were calculated for PFS2 and MFS; comparisons were performed using log-rank test and Cox proportional-hazards regression for treatment arms and MMAI risk groups. […] was used to evaluate the interaction between treatment arms and risk groups.
SPARTAN (NCT01946204) was an international, multicenter, randomized, double-blinded, placebo-controlled, phase III clinical trial that evaluated the efficacy of apalutamide in improving MFS in men with nmCRPC. […] These patients were considered at high risk for the development of metastases, as indicated by a PSA doubling time of 10 months or less during continuous ADT.
Participants were randomly assigned 2:1 to receive ongoing ADT with either apalutamide (240 mg daily) or a matched placebo. A primary endpoint of the study was MFS, defined as the duration from randomization to the first detection of distant metastasis on conventional imaging (as determined on central review by independent radiologists blinded to patient identifiers and treatment) or death from any cause, whichever occurred first. Secondary endpoints included second progression-free survival (PFS2), defined as the time from randomization to progression on first subsequent therapy, and overall survival (OS), defined as the time from randomization to death.
MMAI scores were computed for each subject within the analysis cohort using whole slide images digitized at 20× resolution from H&E-stained prostate primary slides obtained at the time of diagnosis. These scores, ranging from 0 to 1, represent a continuum of increasing probabilities for clinical events such as DM and PCSM. Subjects' MMAI scores for risk of DM categorized patients into MMAI risk groups (low, intermediate and high) using predefined clinical thresholds established for patients with localized prostate cancer based upon clinician input. For the purpose of this analysis, patients were categorized as either MMAI high risk or MMAI non-high risk (MMAI score with >10% estimated 10-year DM rates defined high-risk), with the latter group combining the low and intermediate risk categories for comparison.
Summary statistics of baseline characteristics for the analysis cohort, treatment subgroups and the overall clinical trial cohort were reported to evaluate comparability. Kaplan-Meier estimates were calculated for MFS, PFS2, and OS for analysis by treatment group and MMAI risk groups. Comparisons were performed using log-rank test and Cox proportional hazards regression models for treatment arms, MMAI risk scores, and MMAI risk group. The reporting unit for continuous MMAI scores in the Cox models is standard deviation (SD), meaning that each 1-unit increase corresponds to 1 SD increase in MMAI score. The interaction between treatment arm and MMAI risk scores was evaluated using a Cox proportional hazards model. Treatment effects within each MMAI risk subgroup were also assessed to measure the relative treatment effect between arms. […]

[2] = system: nonmetastatic castration-resistant prostate cancer (nmCRPC); conditions: cited from earlier work
[3] = all patients of analysis cohort
[4] = model with MMAI risk group (high/non-high) and MMAI risk group:Treatment interaction
[5] = model with continuous MMAI risk score and MMAI risk score:Treatment interaction
[6] = overall SPARTAN study, in words

Compound: CNC(=O)c1ccc(N2C(=S)N(c3cnc(C#N)c(C(F)(F)F)c3)C(=O)C23CCC3)cc1F [apalutamide]
- Median overall survival (95% CI), month ([1]; MMAI Biomarker Cohort, N = 311): 65.1 month
- MFS hazard ratio (HR) for apalutamide compared to placebo ([1]; MMAI high risk group, metastasis-free survival, with ongoing ADT): 0.19
- OS hazard ratio (HR) for apalutamide compared to placebo ([1]; MMAI high risk group, overall survival): 0.6
- PFS2 hazard ratio (HR) for apalutamide compared to placebo ([1]; MMAI high risk group): 0.47
- PFS2 hazard ratio (HR) for apalutamide compared to placebo ([1]; MMAI high risk group, listed as APA): 0.76
- MFS HR, variable Treatment, Cox regression univariate analysis [1, 3]: 0.28
- PFS2 HR, variable Treatment, Cox regression univariate analysis [1, 3]: 0.55
- OS HR, variable Treatment, Cox regression univariate analysis ([1]; all patients of analysis cohort, listed as Treatment): 0.7
- MFS HR, variable Treatment, Cox regression multivariable analysis [1, 4]: 0.61
- OS HR, variable Treatment, Cox regression multivariable analysis [1, 4]: 0.97
- PFS2 HR, variable Treatment, Cox regression multivariable analysis [1, 4]: 0.74
- MFS HR, variable Treatment, Cox regression multivariable analysis [1, 5]: 1.72
- OS HR, variable Treatment, Cox regression multivariable analysis [1, 5]: 1.98
- PFS2 HR, variable Treatment, Cox regression multivariable analysis [1, 5]: 2.28
- Median metastasis-free survival (95% CI), month ([2]; Overall SPARTAN Trial, N = 806): 40.5 month
- Median overall survival (95% CI), month ([2]; Overall SPARTAN Trial, N = 806): 73.9 month
- metastasis-free survival (MFS), effect of adding apalutamide to ADT [2, 6]: significantly improved
- second progression-free survival (PFS2), effect of adding apalutamide to ADT [2, 6]: significantly improved
- time to symptomatic progression, effect of adding apalutamide to ADT [2, 6]: significantly improved
- overall survival (OS), effect of adding apalutamide to ADT compared to placebo ([2]; overall SPARTAN study, in words, median follow up of 52 months): significantly improved; also recorded: significant extension
